These results are taken from patent publication US10730889B2, “Amido spirocyclic amide and sulfonamide derivatives” (Forma TM, LLC, priority 2012, dated 2020).

The assay relates to A2780 cells. In words: In-vitro cell proliferation assay (SRB, 72 hours). The assay is classed as cell-based. Particulars: Homo sapiens, A2780, 72 h, A2780 cells, 72 hours, SRB; read-out: Cell Proliferation (IC50).
`CC(C)(C)CS(=O)(=O)N1CCC2(CC1)CC2CNC(=O)c1cc2ccncc2o1` (stereo not drawn) [Example 378, N-[[6-(2,2-dimethylpropylsulfonyl)-6-azaspiro[2.5]octan-2-yl]methyl]furo[2,3-c]pyridine-2-carboxamide]: the IC50 is 2000 nM.

As to `CCn1nc(C)c(C(=O)N2CCC3(CC2)CC3CNC(=O)c2cc3c(o2)C=NCC3)c1C` (stereo not drawn) [Example 222, N-[[6-(1-isopropyl-3,5-dimethyl-pyrazole-4-carbonyl)-6-azaspiro[2.5]octan-2-y]methyl]furo[2,3-c]pyridine-2-carboxamide], the IC50 stood at 11.7 nM.

In the case of `NC(=O)N1CCCC(C(=O)N2CCC3(CC2)CC3CNC(=O)c2cc3ccncc3o2)C1` (stereo not drawn) [Example 79, N-[[6-(1-carbamoylpiperidine-3-carbonyl)-6-azaspiro[2.5]octan-2-yl]methyl]furo[2,3-c]pyridine-2-carboxamide], the IC50 is 2000 nM.

Take `O=C1CN(CC(=O)N2CCC3(CC2)CC3CNC(=O)c2cc3ccncc3o2)CCN1` (stereo not drawn) [Example 91, N-[[6-[2-(3-oxopiperazin-1-yl)acetyl]-6-azaspiro[2.5]octan-2-yl]methyl]furo[2,3-c]pyridine-2-carboxamide]: the IC50 stood at 2000 nM.

Consider `CCn1nc(C)c(C(=O)N2CCC3(CC2)CC3CNC(=O)c2cc3ccncc3o2)c1C` (stereo not drawn) [Example 314, N-[[6-(1-ethyl-3,5-dimethyl-pyrazole-4-carbonyl)-6-azaspiro[2.5]octan-2-yl]methyl]furo[2,3-c]pyridine-2-carboxamide], for which the IC50 is 6.76 nM.

As for `O=C(NCC1CC12CCN(C(=O)c1ccc(Cn3cnnn3)cc1)CC2)c1cc2ccncc2o1` (stereo not drawn) [Example 83, N-[[6-[4-(tetrazol-1-ylmethyl)benzoyl]-6-azaspiro[2.5]octan-2-yl]methyl]furo[2,3-c]pyridine-2-carboxamide], the IC50 turned out to be 1080 nM.

Regarding `O=C(NCC1CC12CCN(C(=O)CC1CCCCO1)CC2)c1cc2ccncc2o1` (stereo not drawn) [Example 52, N-[[6-(2-tetrahydropyran-2-ylacetyl)-6-azaspiro[2.5]octan-2-yl]methyl]furo[2,3-c]pyridine-2-carboxamide], the IC50 was 674 nM.

For `CC(C)N1CC(C(=O)N2CCC3(CC2)CC3CNC(=O)c2cc3ccncc3o2)CC1=O` (stereo not drawn) [Example 90, N-[[6-(1-isopropyl-5-oxo-pyrrolidine-3-carbonyl)-6-azaspiro[2.5]octan-2-yl)methyl]furo[2,3-c]pyridine-2-carboxamide], the IC50 worked out at 183 nM.

With `CC(C)C(=O)N1CC(C(=O)N2CCC3(CC2)CC3CNC(=O)c2cc3ccncc3o2)C1` (stereo not drawn) [Example 144, N-[[6-[1-(2-methylpropanoyl)azetidine-3-carbonyl]-6-azaspiro[2.5]octan-2-yl]methyl]furo[2,3-c]pyridine-2-carboxamide], the IC50 was 375 nM.

`Cc1ccc(C(=O)N2CCC3(CC2)CC3CNC(=O)c2cc3ccncc3o2)cn1` (stereo not drawn) [Example 233, N-[[6-(6-methylpyridine-3-carbonyl)-6-azaspiro[2.5]octan-2-yl]methyl]furo[2,3-c]pyridine-2-carboxamide]: the IC50 stood at 288 nM.

Consider `O=C(Cc1cc(F)cc(F)c1)N1CCC2(CC1)CC2CNC(=O)N1Cc2ccncc2C1` (stereo not drawn) [Example 201, N-[[6-[2-(3,5-difluorophenyl)acetyl]-6-azaspiro[2.5]octan-2-yl]methyl]-1,3-dihydropyrrolo[3,4-c]pyridine-2-carboxamide], for which the IC50 was determined as 27.9 nM.

Regarding `O=C(NCC1CC12CCN(C(=O)c1cnn3cccnc13)CC2)c1cc2ccncc2o1` (stereo not drawn) [Example 321, N-[[6-(pyrazolo[1,5-a]pyrimidine-3-carbonyl)-6-azaspiro[2.5]oclan-2-yl]methyl]furo[2,3-c]pyridine-2-carboxamide], the IC50 was 2000 nM.

As for `Cc1cccc(CNC(=O)N2CCC3(CC2)CC3CNC(=O)c2cc3ccncc3o2)c1` (stereo not drawn) [Example 158, N-[[6-(m-tolylmethylcarbamoyl)-6-azaspiro[2.5]octan-2-yl]methyl]furo[2,3-c]pyridine-2-carboxamide], the IC50 was 2000 nM.

Take `CC1(OC(=O)N2CCC3(CC2)CC3CNC(=O)N2Cc3ccncc3C2)CCOC1` (stereo not drawn) [Example 375, (3-methyltetrahydrofuran-3-yl) 2-[(1,3-dihydropyrrolo[3,4-c]pyridine-2-carbonylamino)methyl]-6-azaspiro[2.5]octane-6-carboxylate]: the IC50 was found to be 1.11 nM.

Take `CC(=O)N(C)CCC(=O)N1CCC2(CC1)CC2CNC(=O)c1cc2ccncc2o1` (stereo not drawn) [Example 155, N-[[6-[3-[acetyl(methyl]amino]propanoyl]-6-azaspiro[2.5]octan-2-yl]methyl]furo[2,3-c]pyridine-2-carboxamide]: the IC50 turned out to be 2000 nM.

With `Cc1cnn(C(C)(C)C)c1C(=O)N1CCC2(CC1)CC2CNC(=O)c1cc2ccncc2o1` (stereo not drawn) [Example 298, N-[[6-(2-tert-butyl-4-methyl-pyrazole-3-carbonyl)-6-azaspiro[2.5]octan-2-yl]methyl]furo[2,3-c]pyridine-2-carboxamide], the IC50 is 103 nM.

As to `O=C(NCC1CC12CCN(C(=O)CC1NC(=O)c3ccccc31)CC2)c1cc2ccncc2o1` (stereo not drawn) [Example 77, N-[[6-[2-(3-oxoisoindolin-1-yl)acetyl]-6-azaspiro[2.5]octan-2-yl]methyl]furo[2,3-c]pyridine-2-carboxamide], the IC50 turned out to be 1150 nM.

As for `Cc1ccc(CNC(=O)N2CCC3(CC2)CC3CNC(=O)c2cc3ccncc3o2)cc1` (stereo not drawn) [Example 162, N-[[6-(p-tolylmethylcarbamoyl)-6-azaspiro[2.5]octan-2-yl]methyl]furo[2,3-c]pyridine-2-carboxamide], the IC50 amounted to 2000 nM.

`Cc1ccc2nc(C(=O)N3CCC4(CC3)CC4CNC(=O)c3cc4ccncc4o3)cn2c1` (stereo not drawn) [Example 315, N-[[6-(6-methylimidazo[1,2-a]pyridine-2-carbonyl)-6-azaspiro[2.5]octan-2-yl]methyl]furo[2,3-c]pyridine-2-carboxamide]: the IC50 stood at 104 nM.

Consider `Cc1cc(C(=O)N2CCC3(CC2)CC3CNC(=O)c2cc3ccncc3o2)n(C(C)(C)C)n1` (stereo not drawn) [Example 308, N-[[6-(2-tert-butyl-5-methyl-pyrazole-3-carbonyl)-6-azaspiro[2.5]octan-2-yl]methyl]furo[2,3-c]pyridine-2-carboxamide], for which the IC50 came out at 2000 nM.

On to `O=C(NCC1CC12CCN(C(=O)c1nc[nH]n1)CC2)c1cc2ccncc2o1` (stereo not drawn) [Example 100, N-[[6-(1H-1,2,4-triazole-3-carbonyl)-6-azaspiro[2.5]octan-2-yl]methyl]furo[2,3-c]pyridine-2-carboxamide], for which the IC50 is 2000 nM.

For the molecule `Cc1ccn(CC(C)C(=O)N2CCC3(CC2)CC3CNC(=O)c2cc3ccncc3o2)n1` (stereo not drawn) [Example 140, N-[[6-[2-methyl-3-(3-methylpyrazol-1-yl)propanoyl]-6-azaspiro[2.5]octan-2-yl]methyl]furo[2,3-c]pyridine-2-carboxamide], the IC50 was 2000 nM.

Regarding `CC1(CC(=O)N2CCC3(CC2)CC3CNC(=O)c2cc3ccncc3o2)COC1` (stereo not drawn) [Example 195, N-[[6-[2-(3-methyloxetan-3-yl)acetyl]-6-azaspiro[2.5]octan-2-yl]methyl]furo[2,3-c]pyridine-2-carboxamide], the IC50 was 218 nM.

For the molecule `O=C(NCC1CC12CCN(C(=O)c1ccc(-n3ccnc3)nc1)CC2)c1cc2ccncc2o1` (stereo not drawn) [Example 255, N-[[6-(6-imidazol-1-ylpyridine-3-carbonyl)-6-azaspiro[2.5]octan-2-yl]methyl]furo[2,3-c]pyndine-2-carboxamide], the IC50 was found to be 179 nM.

Turning to `CS(=O)(=O)N1CCC(C(=O)N2CCC3(CC2)CC3CNC(=O)c2cc3ccncc3o2)CC1` (stereo not drawn) [Example 74, N-[[6-(1-methylsulfonylpiperidine-4-carbonyl)-6-azaspiro[2.5]octan-2-yl]methyl]furo[2,3-c]pyridine-2-carboxamide], the IC50 stood at 169 nM.

Consider `O=C(NCC1CC12CCN(C(=O)c1cnco1)CC2)c1cc2ccncc2o1` (stereo not drawn) [Example 336, N-[[6-(oxazole-5-carbonyl)-6-azaspiro[2.5]octan-2-yl]methyl]furo[2,3-c]pyridine-2-carboxamide], for which the IC50 stood at 63.5 nM.

Take `O=C(NCc1ccccc1)N1CCC2(CC1)CC2CNC(=O)N1Cc2ccncc2C1` (stereo not drawn) [Example 210, N-[[6-(benzylcarbamoyl)-6-azaspiro[2.5]octan-2-yl]methyl]-1,3-dihydropyrrolo[3,4-c]pyridine-2-carboxamide]: the IC50 worked out at 316 nM.

As to `O=C(NCC1CC12CCN(C(=O)Cc1ccc(S(=O)(=O)C(F)(F)F)cc1)CC2)c1cc2ccncc2o1` (stereo not drawn) [Example 154, N-[[6-[2-[4-(trifluoromethylsulfonyl)phenyl]acetyl]-6-azaspiro[2.5]octan-2-yl]methyl]furo[2,3-c]pyridine-2-carboxamide], the IC50 came out at 2610 nM.

With `O=C(NCC1CC12CCN(S(=O)(=O)Cc1ccccc1)CC2)N1Cc2ccncc2C1` (stereo not drawn) [Example 211, N-[(6-benzylsulfonyl-6-azaspiro[2.5]octan-2-yl)methyl]-1,3-dihydropyrrolo[3,4-c]pyridine-2-carboxamide], the IC50 amounted to 131 nM.

For `CC(C)c1n[nH]cc1C(=O)N1CCC2(CC1)CC2CNC(=O)c1cc2ccncc2o1` (stereo not drawn) [Example 324, N-[[6-(3-isopropyl-1H-pyrazole-4-carbonyl)-6-azaspiro[2.5]octan-2-yl]methyl]furo[2,3-c]pyridine-2-carboxamide], the IC50 stood at 109 nM.

In the case of `Cc1nc(C)c(C(=O)N2CCC3(CC2)CC3CNC(=O)c2cc3ccncc3o2)o1` (stereo not drawn) [Example 128, N-[[6-(2,4-dimethyloxazole-5-carbonyl)-6-azaspiro[2.5]octan-2-yl]methyl]furo[2,3-c]pyridine-2-carboxamide], the IC50 stood at 29.2 nM.

`Cc1nn(C(C)(C)C)c(C)c1C(=O)N1CCC2(CC1)CC2CNC(=O)c1cc2ccncc2o1` (stereo not drawn) [Example 294, N-[[6-(1-tert-butyl-3,5-dimethyl-pyrazole-4-carbonyl)-6-azaspiro[2.5]octan-2-yl]methyl]furo[2,3-c]pyridine-2-carboxamide]: the IC50 is 12.1 nM.

Turning to `O=C(NCC1CC12CCN(C(=O)CC1CCOCC1)CC2)c1cc2ccncc2o1` (stereo not drawn) [Example 36, N-[[6-(2-tetrahydropyran-4-ylacetyl)-6-azaspiro[2.5]octan-2-yl]methyl]furo[2,3-c]pyridine-2-carboxamide], the IC50 worked out at 185 nM.
